System: human colorectal cancer cell line COLO-320DM
Experiment: MTT assay, combination of test compound and other anticancer agents
Assay type: cell-based
Settings: Examples 9 to 14, COLO-320DM: test compound added at the concentration shown in FIGS. 9 to 14 to irinotecan (SN-38); survival with only irinotecan = 100%
Experimental: The ratio of residual cells in treatment of the human colorectal cancer cell line COLO-320DM with a combination of the compound prepared in each Compound Example (test compound or tankyrase inhibitory compound) and each of the anticancer agents was measured to evaluate the cell killing effect of the combination on the human colorectal cancer cell line COLO-320DM. The combinations of test compounds and anticancer agents are as follows.
(Example 8): combination of the compound prepared in Compound Example 5 and temozolomide, melphalan, gemcitabine, cytarabine (Ara-C), fluorouracil (5-FU), pemetrexed, mercaptopurine, methotrexate, irinotecan (SN-38), etoposide (VP-16), actinomycin D, daunorubicin, doxorubicin, bleomycin, mitoxantrone, oxaliplatin, carboplatin or cisplatin (Example 9): combination of the compound prepared in Compound Example 110 (G007-LK) and irinotecan (SN-38) (Example 10): combination of the compound prepared in Compound Example 11 and irinotecan (SN-38) (Example 11): combination of the compound prepared in Compound Example 19 and irinotecan (SN-38) (Example 12): combination of the compound prepared in Compound Example 101 and irinotecan (SN-38) (Example 13): combination of the compound prepared in Compound Example 1 and irinotecan (SN-38) (Example 14): combination of the compound prepared in Compound Example 113 and irinotecan (SN-38)
Commercially available compounds were used for temozolomide (manufactured by Sigma-Aldric), melphalan (manufactured by Signa-Aldrich), gemcitabine (Gemcitabine hydrochloride; manufactured by Sigma-Aldric), cytarabine (Cytosine β-D-arabinofuranoside (Ara-C); manufactured by Sigma-Aldrich), fluorouracil (5-Fluorouracil (5-FU); manufactured by Sigma-Aldrich), pemetrexed (Pemetrexed disodium heptahydrate; manufactured by Sigma-Aldrich), mercaptopurine (6-Mercaptopurine monohydrate; manufactured by Sigma-Aldrich), methotrexate (Methotrexate hydrate; manufactured by Sigma-Aldrich), irinotecan (7-Ethyl-10-hydroxycamptothecin (SN-38); manufactured by Sigma-Aldrich), etoposide (Etoposide (VP-16); manufactured by Enzo Life Sciences, Inc.), actinomycin D (manufactured by nacalai tesque), daunorubicin (Daunorubicin hydrochloride; Calbiochem), doxorubicin (Doxorubicin hydrochloride; manufactured by Sigma-Aldrich), bleomycin (Bleomycin sulfate; manufactured by Enzo Life Sciences, Inc.), mitoxantrone (Mitoxantrone dihydrochloride; manufactured by Sigma-Aldrich), oxaliplatin (manufactured by Sigma-Aldrich), carboplatin (manufactured by Sigma-Aldrich) and cisplatin (manufactured by Enzo Life Sciences, Inc.).
First, the human colorectal cancer cell line COLO-320DM was suspended in RPMI1640 medium (hereinafter, medium) containing inactivated 10% fetal bovine serum, and the cells were seeded in a 96-well microplate at 350 cells (75 μL) per well. The cells were subjected to stationary culture overnight in a CO2 incubator at 37° C. Thereafter, in Example 8, a medium (25 μL) containing a combination of the compound prepared in Compound Example 5 and each of the anticancer agents was added in triplicate in such a manner that the final concentrations of the test compound (compound prepared in Compound Example 5) were 0 nM or 30 nM and that the final concentrations of each anticancer agent were those shown in Table 14. In Examples 9 to 14, a medium (25 μL) containing a combination of the compound prepared in each of Compound Examples and each of the anticancer agents was added in triplicate in such a manner that the final concentrations of the test compound were 0 nM or those shown in FIGS. 9 to 14. As a control, 25 μL of a medium containing only dimethyl sulfoxide (DMSO) which is a solvent was added. […]

Structure (SMILES)	cell survival rate
CCOc1ccc(-c2n[nH]nc2[C@H]2NC(=O)c3cccc(C)c3N2)cc1 [Compound Example 101, (2R)-2-[5-(4-Ethoxyphenyl)-2H-1,2,3-triazol-4-yl]-8-methyl-2,3-dihydro-1H-quinazolin-4-one]	about 50%
COc1ccc(-c2c[nH]nc2C2NC(=O)c3cccc(C)c3N2)cc1 (centres unmarked) [Compound Example 113, 2-[4-(4-Methoxyphenyl)-1H-pyrazol-3-yl]-8-methyl-2,3-dihydro-1H-quinazolin-4-one]	about 50%
